Legend:
human ALK2 R206H = target: T1, human ALK2 R206H (Homo sapiens, UniProt Q04771, R206H); test: Cell-based ALK2-R206H cell activity assay (Smad1-Ser463/Ser465 phosphorylation by AlphaLISA in HEK293-ALK2-R206H cells); settings: phospho-Smad1 AlphaLISA, read-out: Cell Line (Cell Assay, IC50 class)
T1 construct: expressed in transfected cells; host or cells: HEK293 (ATCC CRL1573), lentivirus transduction, blasticidin selection
T1 sequence (Q04771 21-509 R206H): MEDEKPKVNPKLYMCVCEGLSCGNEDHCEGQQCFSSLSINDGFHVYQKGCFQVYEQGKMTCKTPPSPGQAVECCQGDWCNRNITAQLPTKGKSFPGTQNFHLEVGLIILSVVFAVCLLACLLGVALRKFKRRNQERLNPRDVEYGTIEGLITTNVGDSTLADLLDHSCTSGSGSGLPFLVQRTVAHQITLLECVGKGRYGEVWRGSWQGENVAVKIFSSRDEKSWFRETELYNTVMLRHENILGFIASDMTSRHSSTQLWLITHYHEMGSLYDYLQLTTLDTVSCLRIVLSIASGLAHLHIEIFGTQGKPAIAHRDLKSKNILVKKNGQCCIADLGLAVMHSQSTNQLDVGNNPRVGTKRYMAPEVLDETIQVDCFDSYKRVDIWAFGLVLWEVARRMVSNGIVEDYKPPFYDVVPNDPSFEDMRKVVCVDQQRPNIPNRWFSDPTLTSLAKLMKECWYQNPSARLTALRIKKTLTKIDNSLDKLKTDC
In short: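 IC50 comes from a 10-point curve, scaled between DMSO and 1 μM LDN193189 controls, of lysate phospho-Smad1 (Ser463/465) measured by AlphaLISA. Compounds (top 10 μM or 1 μM, 3-fold steps, duplicates) were given 2-3 h to serum-starved HEK293 cells that stably express FLAG-tagged human ALK2 R206H.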

[1] = target: T2, ALK2R206H (mutant ALK2, N-terminally tagged with GST) (Homo sapiens, UniProt Q04771, R206H); test: ALK binding assay (LANTHASCREEN TR-FRET competitive binding, displacement of Kinase Tracer 178); settings: read-out: Binding Assay (IC50 class)
T2 construct: purchased Carna Bioscience or ThermoFisher 09-148 or PV6232
T2 sequence (Q04771 21-509 R206H): T1 sequence (Q04771 21-509 R206H)
In short: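 Competitive displacement of Kinase Tracer 178 (50 nM) from N-terminally GST-tagged mutant ALK2 R206H (2-5 nM) by compound, detected by TR-FRET with Eu-anti-GST antibody (4-10 nM). 30 min room temperature incubation, 1% DMSO final; normalized signal fitted to 4-parameter log dose response for IC50.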

| Compound | IC50 (human ALK2 R206H) [nM] | IC50 [1] [nM] |
| --- | --- | --- |
| Cc1nc(-c2cc3c(N4CCN(C(=O)OC5CC5)CC4)ccnc3[nH]2)cs1 [Compound 109] | ≤ 100 | ≤ 10 |
| O=C(C1CC1)N1CCN(c2ccnc3[nH]c(-c4cnn(C5CCC5)c4)cc23)CC1 [Compound 128] | 100 to 500 | ≤ 10 |
| CCOC(=O)N1CCN(c2ccnc3[nH]c(-c4cnn(C)c4)cc23)CC1 [Compound 11] | 100 to 500 | ≤ 10 |
| Cn1cc(-c2cc3c(N4CCN(C(=O)[C@H]5C[C@H](C#N)C5)CC4)ccnc3[nH]2)cn1 [Compound 123] | 100 to 500 | ≤ 10 |
| Cc1nc(-c2cc3c(N4CCN(C(=O)O[C@H]5C[C@H](F)C5)CC4)ccnc3[nH]2)cn1C [Compound 244] | ≤ 100 | ≤ 10 |
| COC1CC(OC(=O)N2CCN(c3ccnc4[nH]c(-c5cnn(C)c5)cc34)CC2)C1 (centres unmarked) [Compound 233] | 100 to 500 | ≤ 10 |
| Cc1nc(-c2cc3c(N4CCN(C(=O)OCC(F)F)CC4)ccnc3[nH]2)cn1C [Compound 190] | ≤ 100 | ≤ 10 |
| Cn1cc(-c2[nH]c3nccc(N4CCN(C(=O)OCC(F)F)CC4)c3c2C#N)cn1 [Compound 256] | ≤ 100 | ≤ 10 |
| Cn1cnc(-c2cc3c(N4CCN(C(=O)OC5CCC5)CC4)ccnc3[nH]2)c1 [Compound 76] | ≤ 100 | ≤ 10 |
| CCOC(=O)N1CCN(c2ccnc3[nH]c(-c4ccc(C#N)cn4)cc23)CC1 [Compound 56] | 100 to 500 | ≤ 10 |
| Cn1cnc(-c2cc3c(N4CCN(C(=O)O[C@H]5C[C@@H](F)C5)CC4)ccnc3[nH]2)c1 [Compound 160] | ≤ 100 | ≤ 10 |
| Cc1csc(-c2cc3c(N4CCN(C(=O)OC5COC5)CC4)ccnc3[nH]2)n1 [Compound 173] | 100 to 500 | ≤ 10 |
| CCOC(=O)N1CCN(c2ccnc3[nH]c(-c4ncc(C)s4)cc23)CC1 [Compound 49] | 100 to 500 | ≤ 10 |
| Cc1nc(-c2cc3c(N4CCN(C(=O)OCC(F)F)CC4)ccnc3[nH]2)cs1 [Compound 212] | ≤ 100 | ≤ 10 |
| Cn1cc(-c2cc3c(N4CCN(C(=O)OCC(F)F)CC4)ccnc3[nH]2)cn1 [Compound 126] | ≤ 100 | ≤ 10 |
| CCOC(=O)N1CCN(c2ccnc3[nH]c(-c4ccc(C)cn4)cc23)CC1 [Compound 24] | 100 to 500 | ≤ 10 |

| Compound | IC50 (human ALK2 R206H) [nM] | IC50 [1] [nM] |
| --- | --- | --- |
| Cn1cc(-c2cc3c(N4CCN(C(=O)[C@H]5CC[C@H](O)CC5)CC4)ccnc3[nH]2)cn1 [Compound 224] | > 500 | ≤ 10 |
| Cn1cc(-c2cc3c(N4CCN(C(=O)[C@H]5C[C@@H]5C#N)CC4)ccnc3[nH]2)cn1 [Compound 54] | 100 to 500 | ≤ 10 |
| CCOC(=O)N1CCN(c2ccnc3[nH]c(-c4cn(C)nc4F)cc23)CC1 [Compound 51] | 100 to 500 | ≤ 10 |
| N#CC1(c2ccc(-c3cc4c(N5CCN(C(=O)C6CC6)CC5)ccnc4[nH]3)cc2)CC1 [Compound 241] | ≤ 100 | ≤ 10 |
| Cn1cnc(-c2[nH]c3nccc(N4CCN(C(=O)OC5COC5)CC4)c3c2Cl)c1 [Compound 274] | ≤ 100 | ≤ 10 |
| CCc1cnc(-c2cc3c(N4CCN(C(=O)OC5COC5)CC4)ccnc3[nH]2)s1 [Compound 249] | ≤ 100 | ≤ 10 |
| Cc1ncsc1-c1cc2c(N3CCN(C(=O)OC4COC4)CC3)ccnc2[nH]1 [Compound 175] | 100 to 500 | ≤ 10 |
| N#Cc1ccc(-c2cc3c(N4CCN(C(=O)C5CC5)CC4)ccnc3[nH]2)cc1 [Compound 45] | ≤ 100 | ≤ 10 |
| CCc1nc(-c2cc3c(N4CCN(C(=O)OC5COC5)CC4)ccnc3[nH]2)cs1 [Compound 248] | ≤ 100 | ≤ 10 |
| Cn1cc(-c2cc3c(N4CCN(C(=O)O[C@H]5CCOC5)CC4)ccnc3[nH]2)cn1 [Compound 150] | 100 to 500 | ≤ 10 |
| Cc1nc(-c2cc3c(N4CCN(C(=O)OC5COC5)CC4)ccnc3[nH]2)cs1 [Compound 170] | ≤ 100 | ≤ 10 |
| Cn1cc(-c2cc3c(N4CCN(C(=O)O[C@H]5CCC5(F)F)CC4)ccnc3[nH]2)cn1 [Compound 268] | ≤ 100 | ≤ 10 |
| Cn1cc(-c2cc3c(N4CCN(C(=O)OC5CCOCC5)CC4)ccnc3[nH]2)cn1 [Compound 234] | 100 to 500 | ≤ 10 |
| Cn1cc(-c2[nH]c3nccc(N4CCN(C(=O)OC5CCC5)CC4)c3c2Cl)cn1 [Compound 255] | ≤ 100 | ≤ 10 |
| CO[C@H]1C[C@H](OC(=O)N2CCN(c3ccnc4[nH]c(-c5cnn(C)c5)cc34)CC2)C1 [Compound 232] | ≤ 100 | ≤ 10 |

Results, then the compound that gave them:

| IC50 (human ALK2 R206H) [nM] | IC50 [1] [nM] | Compound |
| --- | --- | --- |
| 100 to 500 | ≤ 10 | CS(=O)(=O)c1ccc(-c2cc3c(N4CCN(C(=O)C5CC5)CC4)ccnc3[nH]2)cc1 [Compound 307] |
| 100 to 500 | ≤ 10 | Cn1cc(-c2cc3c(N4CCN(C(=O)OCCC(F)(F)F)CC4)ccnc3[nH]2)cn1 [Compound 292] |
| ≤ 100 | ≤ 10 | N#Cc1c(-c2cnn(C(F)F)c2)[nH]c2nccc(N3CCN(C(=O)OC4COC4)CC3)c12 [Compound 376] |
| ≤ 100 | ≤ 10 | O=C(O[C@H]1C[C@H](F)C1)N1CCN(c2ccnc3[nH]c(-c4cn(C(F)F)cn4)cc23)CC1 [Compound 345] |
| ≤ 100 | ≤ 10 | CC#Cc1c(-c2cnn(C)c2)[nH]c2nccc(N3CCN(C(=O)OC4COC4)CC3)c12 [Compound 285] |
| ≤ 100 | ≤ 10 | Cn1cc(-c2[nH]c3nccc(N4CCN(C(=O)[C@H]5CC[C@H](C#N)CC5)CC4)c3c2C#N)cn1 [Compound 374] |
| ≤ 100 | ≤ 10 | O=C(OC1COC1)N1CCN(c2ccnc3[nH]c(-c4ccc(C5(O)CCOCC5)cn4)cc23)CC1 [Compound 446] |
| ≤ 100 | ≤ 10 | Cc1nc(-c2[nH]c3nccc(N4CCN(C(=O)OC5COC5)CC4)c3c2C#N)cs1 [Compound 303] |
| 100 to 500 | ≤ 10 | Cc1nn(C)cc1-c1cc2c(N3CCN(C(=O)[C@H]4CC[C@H](C#N)CC4)CC3)ccnc2[nH]1 [Compound 333] |
| ≤ 100 | ≤ 10 | Cc1nc(-c2cc3c(N4CCN(C(=O)O[C@@H]5CC(F)(F)C5(F)F)CC4)ccnc3[nH]2)cn1C [Compound 433] |
| ≤ 100 | ≤ 10 | O=C(C1CC1)N1CCN(c2ccnc3[nH]c(-c4ccc(N5CCNC6(COC6)C5)cc4)cc23)CC1 [Compound 437] |
| 100 to 500 | ≤ 10 | O=C(OC1COC1)N1CCN(c2ccnc3[nH]c(-c4csc(C(F)(F)F)n4)cc23)CC1 [Compound 408] |
| ≤ 100 | ≤ 10 | Cc1nn(C(C)C)cc1-c1cc2c(N3CCN(C(=O)[C@H]4CC[C@H](C#N)CC4)CC3)ccnc2[nH]1 [Compound 422] |
| ≤ 100 | ≤ 10 | CC(C)c1cnc(-c2cc3c(N4CCN(C(=O)OC5COC5)CC4)ccnc3[nH]2)s1 [Compound 316] |
| ≤ 100 | ≤ 10 | Cc1nc(-c2[nH]c3nccc(N4CCN(C(=O)OC5CCC5)CC4)c3c2C#N)cs1 [Compound 294] |
| ≤ 100 | ≤ 10 | CC(C)N1CCC(c2ccc(-c3cc4c(N5CCN(C(=O)OC6COC6)CC5)ccnc4[nH]3)cc2)CC1 [Compound 467] |
| ≤ 100 | ≤ 10 | CCN1CCN(c2ccc(-c3cc4c(N5CCN(C(=O)C6CC6)CC5)ccnc4[nH]3)nc2)CC1 [Compound 424] |
| ≤ 100 | ≤ 10 | O=C(OC1COC1)N1CCN(c2ccnc3[nH]c(-c4cnn(C(F)F)c4)cc23)CC1 [Compound 279] |
| ≤ 100 | ≤ 10 | N#Cc1c(-c2nc3c(s2)COCC3)[nH]c2nccc(N3CCN(C(=O)OCC(F)F)CC3)c12 [Compound 440] |
| ≤ 100 | ≤ 10 | Cn1cc(-c2[nH]c3nccc(N4CCN(C(=O)OC5COC5)CC4)c3c2Cl)cn1 [Compound 276] |
| ≤ 100 | ≤ 10 | O=C(C1CC1)N1CCN(c2ccnc3[nH]c(-c4ccc(C5CCNCC5(F)F)cc4)cc23)CC1 (centres unmarked) [Compound 431] |
| ≤ 100 | ≤ 10 | Cn1cnc(-c2[nH]c3nccc(N4CCN(C(=O)O[C@@H]5CCC5(F)F)CC4)c3c2C#N)c1 [Compound 368] |
| ≤ 100 | ≤ 10 | O=C(OC1COC1)N1CCN(c2ccnc3[nH]c(-c4cn(C5CCOCC5)cn4)cc23)CC1 [Compound 403] |
| ≤ 100 | ≤ 10 | CCOC(=O)N1CCN(c2ccnc3[nH]c(-c4ccc(C5(O)CCOCC5)cn4)cc23)CC1 [Compound 396] |

From US11236086B2, “Substituted pyrrolopyridines as inhibitors of activin receptor-like kinase” (BLUEPRINT MEDICINES CORPORATION, priority 2017, dated 2022)
